Source: patent US12239134B2, “Plant antimicrobial compositions including an emulsifier and/or ozone and methods of use” (Arizona Board of Regents on Behalf of The University of …, priority 2018, dated 2025)
Where two headings read alike, the source gives them in different places.

Legend:
[1] = test system: Salmonella Newport; assay: Biofilm formation on food contact surface coupons, direct plating; assay type: cell-based, Salmonella enterica; details: two-minute treatment
Method: A protocol based on direct plating was also evaluated for testing the biofilm formation by Salmonella or L. monocytogenes. Biofilms were formed on three different food contact surface coupons (HDPE, Buna-N rubber, and 316 stainless steel) for up to 3 days in 35 mm mini-petri dishes. Biofilms were formed using a 1:10 diluted TSB solution (10 mL) with either S. enterica or L. monocytogenes inoculum (100 μL). The diluted TSB was changed every 16-18 hours with new 1:10 diluted TSB (10 mL). Coupons were removed for sampling and enumeration of strongly attached bacteria at three different time points (Day 0, 1, and 3). The coupons were rinsed with deionized water five times to remove planktonic cells. Then the coupons were immersed in 10 mL of BPW. The coupons were sonicated for 2 minutes using different settings (Tables 11 and 12) for each organism. After sonication, the solution was serially diluted and plated on Tryptic Soy Agar (TSA). Plates were incubated at 37° C. for 24-48 hours. The colonies were counted and the colony forming units were determined for the various sonication settings, so that the appropriate setting with the most recovery could be determined. […] These settings were used in further experiments to recover the bacterial cells from coupons during sampling and enumeration (by spread plating) of the bacteria in biofilms.
The reduction in bacterial biofilm formation was also tested using a direct plating method. Biofilms were formed on six different food contact surface coupons (HDPE, Buna-N rubber, PC, PVC, and stainless steel 304 and 316) in separate 35 mm mini-petri dishes and evaluated at three different time points (Day 0, 1, and 3). Biofilms were formed using a 1:10 diluted TSB solution (10 mL) with either S. enterica or L. monocytogenes inoculum (100 μL). The coupons were also washed and treated with antimicrobial solutions containing the plant-based emulsifier and the essential oil/plant extracts at various concentrations. The diluted TSB was changed every 16-18 hours with new 1:10 diluted TSB (10 mL). The coupons were rinsed in the antimicrobial solution before adding them to the petri dishes containing the fresh, diluted TSB. After their specific time points, coupons were removed aseptically using sterile forceps from the petri dish. The coupons were rinsed by submerging in 25 mL of sterile deionized H2O and swirled five times to remove planktonic cells. After rinsing, they were placed into a new petri dish immersed in 10 mL of BPW. The coupons were sonicated for 2 minutes on ice using different settings for each organism. After sonication, the sonicated solution was serially diluted using 0.1% peptone water and spread plated on TSA in duplicate. Plates were incubated overnight at 37° C. for 24-48 hours, after which, the colonies were counted, to establish the efficacy of the antimicrobial solutions (Tables 17-25).

[2] = test system: S. Newport; details: used alone, previous work, cited from earlier work

Cc1ccc(C(C)C)cc1O [Carvacrol, carvacrol]
Survivors of Salmonella Newport on food contact surface ([1]; 0.5% with 0.0001% saponin microemulsion, Day 0, 304 SS): 4.75 Log CFU/mL
Survivors of Salmonella Newport on food contact surface ([1]; 0.5% with 0.0001% saponin microemulsion, Day 0, 316 SS): 4.66 Log CFU/mL
Survivors of Salmonella Newport on food contact surface ([1]; 0.5% with 0.0001% saponin microemulsion, Day 0, Buna N): 4.19 Log CFU/mL
Survivors of Salmonella Newport on food contact surface ([1]; 0.5% with 0.0001% saponin microemulsion, Day 0, HDPE): <1 Log CFU/mL
Survivors of Salmonella Newport on food contact surface ([1]; 0.5% with 0.0001% saponin microemulsion, Day 0, PC): <1 Log CFU/mL
Survivors of Salmonella Newport on food contact surface ([1]; 0.5% with 0.0001% saponin microemulsion, Day 0, PVC): 2.74 Log CFU/mL
Survivors of Salmonella Newport on food contact surface ([1]; 0.5% with 0.0001% saponin microemulsion, Day 1, 304 SS): 4.26 Log CFU/mL
Survivors of Salmonella Newport on food contact surface ([1]; 0.5% with 0.0001% saponin microemulsion, Day 1, 316 SS): 4.42 Log CFU/mL
Survivors of Salmonella Newport on food contact surface ([1]; 0.5% with 0.0001% saponin microemulsion, Day 1, Buna N): 4.65 Log CFU/mL
Survivors of Salmonella Newport on food contact surface ([1]; 0.5% with 0.0001% saponin microemulsion, Day 1, HDPE): <1 Log CFU/mL
Survivors of Salmonella Newport on food contact surface ([1]; 0.5% with 0.0001% saponin microemulsion, Day 1, PC): <1 Log CFU/mL
Survivors of Salmonella Newport on food contact surface ([1]; 0.5% with 0.0001% saponin microemulsion, Day 1, PVC): 4.24 Log CFU/mL
Survivors of Salmonella Newport on food contact surface ([1]; 0.5% with 0.0001% saponin microemulsion, Day 3, 304 SS): <1 Log CFU/mL
Survivors of Salmonella Newport on food contact surface ([1]; 0.5% with 0.0001% saponin microemulsion, Day 3, 316 SS): <1 Log CFU/mL
Survivors of Salmonella Newport on food contact surface ([1]; 0.5% with 0.0001% saponin microemulsion, Day 3, Buna N): <1 Log CFU/mL
Survivors of Salmonella Newport on food contact surface ([1]; 0.5% with 0.0001% saponin microemulsion, Day 3, HDPE): <1 Log CFU/mL
Survivors of Salmonella Newport on food contact surface ([1]; 0.5% with 0.0001% saponin microemulsion, Day 3, PC): <1 Log CFU/mL
Survivors of Salmonella Newport on food contact surface ([1]; 0.5% with 0.0001% saponin microemulsion, Day 3, PVC): <1 Log CFU/mL
Survivors of Salmonella Newport on food contact surface ([1]; 0.7% with 0.0001% saponin microemulsion, Day 0, 304 SS): 4.57 Log CFU/mL
Survivors of Salmonella Newport on food contact surface ([1]; 0.7% with 0.0001% saponin microemulsion, Day 0, 316 SS): 4.24 Log CFU/mL
Survivors of Salmonella Newport on food contact surface ([1]; 0.7% with 0.0001% saponin microemulsion, Day 0, Buna N): 4.44 Log CFU/mL
Survivors of Salmonella Newport on food contact surface ([1]; 0.7% with 0.0001% saponin microemulsion, Day 0, HDPE): 4.24 Log CFU/mL
Survivors of Salmonella Newport on food contact surface ([1]; 0.7% with 0.0001% saponin microemulsion, Day 0, PC): 4.18 Log CFU/mL
Survivors of Salmonella Newport on food contact surface ([1]; 0.7% with 0.0001% saponin microemulsion, Day 0, PVC): 4.63 Log CFU/mL
Survivors of Salmonella Newport on food contact surface ([1]; 0.7% with 0.0001% saponin microemulsion, Day 1, 304 SS): <1 Log CFU/mL
Survivors of Salmonella Newport on food contact surface ([1]; 0.7% with 0.0001% saponin microemulsion, Day 1, 316 SS): <1 Log CFU/mL
Survivors of Salmonella Newport on food contact surface ([1]; 0.7% with 0.0001% saponin microemulsion, Day 1, Buna N): <1 Log CFU/mL
Survivors of Salmonella Newport on food contact surface ([1]; 0.7% with 0.0001% saponin microemulsion, Day 1, HDPE): <1 Log CFU/mL
Survivors of Salmonella Newport on food contact surface ([1]; 0.7% with 0.0001% saponin microemulsion, Day 1, PC): <1 Log CFU/mL
Survivors of Salmonella Newport on food contact surface ([1]; 0.7% with 0.0001% saponin microemulsion, Day 1, PVC): <1 Log CFU/mL
Survivors of Salmonella Newport on food contact surface ([1]; 0.7% with 0.0001% saponin microemulsion, Day 3, 304 SS): <1 Log CFU/mL
Survivors of Salmonella Newport on food contact surface ([1]; 0.7% with 0.0001% saponin microemulsion, Day 3, 316 SS): <1 Log CFU/mL
Survivors of Salmonella Newport on food contact surface ([1]; 0.7% with 0.0001% saponin microemulsion, Day 3, Buna N): <1 Log CFU/mL
Survivors of Salmonella Newport on food contact surface ([1]; 0.7% with 0.0001% saponin microemulsion, Day 3, HDPE): <1 Log CFU/mL
Survivors of Salmonella Newport on food contact surface ([1]; 0.7% with 0.0001% saponin microemulsion, Day 3, PC): <1 Log CFU/mL
Survivors of Salmonella Newport on food contact surface ([1]; 0.7% with 0.0001% saponin microemulsion, Day 3, PVC): <1 Log CFU/mL
Survivors of Salmonella Newport on food contact surface ([1]; 1% with 0.0001% saponin microemulsion, Day 0, 304 SS): <1 Log CFU/mL
Survivors of Salmonella Newport on food contact surface ([1]; 1% with 0.0001% saponin microemulsion, Day 0, 316 SS): <1 Log CFU/mL
Survivors of Salmonella Newport on food contact surface ([1]; 1% with 0.0001% saponin microemulsion, Day 0, Buna N): <1 Log CFU/mL
Survivors of Salmonella Newport on food contact surface ([1]; 1% with 0.0001% saponin microemulsion, Day 0, HDPE): <1 Log CFU/mL
Survivors of Salmonella Newport on food contact surface ([1]; 1% with 0.0001% saponin microemulsion, Day 0, PC): <1 Log CFU/mL
Survivors of Salmonella Newport on food contact surface ([1]; 1% with 0.0001% saponin microemulsion, Day 0, PVC): <1 Log CFU/mL
Survivors of Salmonella Newport on food contact surface ([1]; 1% with 0.0001% saponin microemulsion, Day 1, 304 SS): <1 Log CFU/mL
Survivors of Salmonella Newport on food contact surface ([1]; 1% with 0.0001% saponin microemulsion, Day 1, 316 SS): <1 Log CFU/mL
Survivors of Salmonella Newport on food contact surface ([1]; 1% with 0.0001% saponin microemulsion, Day 1, Buna N): <1 Log CFU/mL
Survivors of Salmonella Newport on food contact surface ([1]; 1% with 0.0001% saponin microemulsion, Day 1, HDPE): <1 Log CFU/mL
Survivors of Salmonella Newport on food contact surface ([1]; 1% with 0.0001% saponin microemulsion, Day 1, PC): <1 Log CFU/mL
Survivors of Salmonella Newport on food contact surface ([1]; 1% with 0.0001% saponin microemulsion, Day 1, PVC): <1 Log CFU/mL
Survivors of Salmonella Newport on food contact surface ([1]; 1% with 0.0001% saponin microemulsion, Day 3, 304 SS): <1 Log CFU/mL
Survivors of Salmonella Newport on food contact surface ([1]; 1% with 0.0001% saponin microemulsion, Day 3, 316 SS): <1 Log CFU/mL
Survivors of Salmonella Newport on food contact surface ([1]; 1% with 0.0001% saponin microemulsion, Day 3, Buna N): <1 Log CFU/mL
Survivors of Salmonella Newport on food contact surface ([1]; 1% with 0.0001% saponin microemulsion, Day 3, HDPE): <1 Log CFU/mL
Survivors of Salmonella Newport on food contact surface ([1]; 1% with 0.0001% saponin microemulsion, Day 3, PC): <1 Log CFU/mL
Survivors of Salmonella Newport on food contact surface ([1]; 1% with 0.0001% saponin microemulsion, Day 3, PVC): <1 Log CFU/mL
reduction of S. Newport on iceberg lettuce ([2]; 0.1%): 1 log CFU/g
reduction of S. Newport on iceberg lettuce ([2]; 0.3%): over 5 log CFU/g
reduction of S. Newport on iceberg lettuce ([2]; 0.5%): over 5 log CFU/g
